Experimental data reported in US20240335442A1 (Eurofarma Laboratórios S.A., priority 2021, published 2024).

Assays:
[1] = target: human sodium channel Nav 1.8 (Homo sapiens (Human), UniProt Q9Y5Y9); experiment: Automated whole-cell voltage-clamp (ScreenPatch 384P), Nav 1.8 sodium current, Protocol 1; format: cell-based; conditions: Protocol 1 (holding voltage -90 mV, 0.1 Hz); CHO cells expressing human Nav 1.8; room temperature; read-out: Nav1.8 IC50
Procedure: (§1) Biological assays were performed on Chinese hamster ovary (CHO) cells expressing the human sodium channels Nav 1.8 and Nav 1.7 stably.
(§2) The experimental voltage-clamp protocol using the whole cell configuration was established on the automated ScreenPatch® 384P platform (SP384PE, Nanion Technologies, Livingston, NJ) and recording of the results was performed with a Nanion 384-well Patch Clamp chip (NPC) (Nanion Technologies, Livingston, NJ).
(§3) Compounds of Formula (I), were diluted in eight concentrations in the extracellular solution composed of physiological saline, buffered with HEPES (mM): NaCl, 137; KCl, 4; CaCl2, 3.8; MgCl2, 1; HEPES, 10; Glucose, 10; pH 7.4. The […], 50; CsF, 90; MgCl2, 5; EGTA, 5; HEPES, 10; pH 7.2. The duration of exposure of each compound with the cells expressing Nav 1.7 or Nav 1.8 was at least five minutes and the assays were performed at room temperature.
(§4) The measurements of the sodium currents of Nav 1.8 and Nav 1.7 were obtained using the voltage protocols described below: • Protocol 1: A holding voltage of-90 mV was established followed by a voltage phase of 200 ms to-120 mV, followed by a voltage step of 10 mV for 1 second for Nav 1.8 or 0 mV for Nav 1.7, followed by a step of-100 mV for 20 ms, followed by a step of 20 ms for 10 mV for Nav 1.8 or 0 mV for Nav 1.7 (TP1A) before returning to the holding voltage of-90 mV. • Protocol 2: A holding voltage of-100 mV was established followed by an inactivation voltage step at −40 mV for 8 seconds, followed by a −100 mV step for 20 ms, followed by a 20 ms step for 10 mV for Nav 1.8 or 0 mV for Nav 1.7 (TP1A) before returning to the holding voltage of-100 mV.
(§5) Protocols were repeated at a frequency of 0.1 Hz (Protocol 1) or 0.05 Hz (Protocol 2) and current amplitude was quantified over the TP1A phase log. The variation in the peak amplitude of the current was evaluated according to the Formula described below, after exposure of the cells expressing the channels, at each concentration of the different compounds:
(§6) where ITP1A,basal, and ITP1A,molecule represent the entry peaks of sodium currents into TP1A prior to exposure to the compound and in the presence of the compound, respectively.
(§7) The decrease in peak current amplitude, after exposure of the cells to the compounds, was used to calculate the percent relative blocking of the channels relative to the positive control according to the Formula below: […]
(§8) where % V and % CP represent the averages of the values of current inhibition with a vehicle (DMSO) and positive controls, respectively. The sodium currents of the positive control were considered as 100%.
(§9) where [Test] represents the concentration of the evaluated molecule, IC50 is the concentration of the compound that generates half of the maximum inhibition, N is the Hill's coefficient and % Block′ is the percentage of the sodium channel current (Nav 1.8 and Nav 1.7) inhibited at each concentration of the evaluated molecule. Data were obtained by non linear least squares regression with XL fit for Excel (Microsoft, Redmond, WA).
(§10) Compounds were tested in at least one assay to obtain the IC50 value.

[2] = target: human sodium channel Nav 1.7 (Homo sapiens (Human), UniProt Q15858); experiment: Automated whole-cell voltage-clamp (ScreenPatch 384P), Nav 1.7 sodium current, Protocol 1; format: cell-based; conditions: Protocol 1 (holding voltage -90 mV, 0.1 Hz); CHO cells expressing human Nav 1.7; room temperature; read-out: Nav1.7 IC50
human sodium channel Nav 1.7, sequence (Q15858 whole entry): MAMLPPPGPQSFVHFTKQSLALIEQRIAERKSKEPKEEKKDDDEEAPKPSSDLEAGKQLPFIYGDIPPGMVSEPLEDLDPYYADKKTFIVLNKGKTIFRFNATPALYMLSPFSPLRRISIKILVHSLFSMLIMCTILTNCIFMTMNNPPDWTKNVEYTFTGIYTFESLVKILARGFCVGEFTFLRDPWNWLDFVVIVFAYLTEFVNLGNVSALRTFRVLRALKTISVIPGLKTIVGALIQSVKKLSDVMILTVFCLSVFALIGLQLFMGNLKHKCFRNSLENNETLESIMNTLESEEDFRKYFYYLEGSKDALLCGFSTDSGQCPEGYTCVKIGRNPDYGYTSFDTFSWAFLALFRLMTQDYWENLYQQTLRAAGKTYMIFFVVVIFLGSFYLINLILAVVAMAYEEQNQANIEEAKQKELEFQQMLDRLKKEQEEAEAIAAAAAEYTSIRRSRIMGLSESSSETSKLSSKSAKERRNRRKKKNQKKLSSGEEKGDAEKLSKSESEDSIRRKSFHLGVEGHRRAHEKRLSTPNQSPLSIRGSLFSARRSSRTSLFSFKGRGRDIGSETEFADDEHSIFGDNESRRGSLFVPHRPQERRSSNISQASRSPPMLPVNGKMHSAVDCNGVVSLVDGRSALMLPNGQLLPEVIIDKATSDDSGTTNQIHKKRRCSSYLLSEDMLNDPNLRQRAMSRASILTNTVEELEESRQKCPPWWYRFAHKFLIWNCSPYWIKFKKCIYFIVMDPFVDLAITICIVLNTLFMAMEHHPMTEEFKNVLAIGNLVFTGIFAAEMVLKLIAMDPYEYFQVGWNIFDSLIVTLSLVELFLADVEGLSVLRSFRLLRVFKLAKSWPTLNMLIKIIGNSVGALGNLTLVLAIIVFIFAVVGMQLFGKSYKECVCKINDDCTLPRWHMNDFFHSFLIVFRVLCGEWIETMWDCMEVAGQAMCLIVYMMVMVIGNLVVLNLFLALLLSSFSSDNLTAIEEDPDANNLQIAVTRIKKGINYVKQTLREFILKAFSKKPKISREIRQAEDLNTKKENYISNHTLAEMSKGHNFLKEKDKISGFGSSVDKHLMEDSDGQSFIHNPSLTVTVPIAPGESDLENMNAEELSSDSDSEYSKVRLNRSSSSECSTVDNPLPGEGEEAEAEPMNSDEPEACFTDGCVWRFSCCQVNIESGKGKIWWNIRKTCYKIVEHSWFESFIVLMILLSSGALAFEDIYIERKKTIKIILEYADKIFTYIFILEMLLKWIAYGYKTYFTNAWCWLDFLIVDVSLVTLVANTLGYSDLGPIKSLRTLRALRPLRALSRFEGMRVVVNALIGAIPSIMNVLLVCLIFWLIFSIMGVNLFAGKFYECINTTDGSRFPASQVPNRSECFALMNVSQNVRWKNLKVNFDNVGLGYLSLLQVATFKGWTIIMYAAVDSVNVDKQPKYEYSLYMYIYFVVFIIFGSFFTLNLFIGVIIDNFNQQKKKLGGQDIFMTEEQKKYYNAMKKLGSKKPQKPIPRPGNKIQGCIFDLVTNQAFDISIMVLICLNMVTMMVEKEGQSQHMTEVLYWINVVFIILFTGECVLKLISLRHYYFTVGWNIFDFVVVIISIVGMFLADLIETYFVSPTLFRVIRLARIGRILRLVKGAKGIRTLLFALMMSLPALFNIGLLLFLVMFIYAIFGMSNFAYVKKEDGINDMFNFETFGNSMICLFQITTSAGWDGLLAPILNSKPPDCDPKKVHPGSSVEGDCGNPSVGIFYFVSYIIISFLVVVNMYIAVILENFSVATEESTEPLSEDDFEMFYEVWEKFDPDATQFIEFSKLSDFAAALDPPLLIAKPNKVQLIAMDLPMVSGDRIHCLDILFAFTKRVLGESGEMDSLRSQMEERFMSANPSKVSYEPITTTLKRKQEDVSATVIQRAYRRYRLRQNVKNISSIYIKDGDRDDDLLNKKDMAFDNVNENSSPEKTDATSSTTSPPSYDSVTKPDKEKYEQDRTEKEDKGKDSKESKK
Procedure: as §1, §2, §3, §4, §5, §6, §7, §8, §9, §10

human sodium channel Nav 1.8, sequence (Q9Y5Y9 whole entry): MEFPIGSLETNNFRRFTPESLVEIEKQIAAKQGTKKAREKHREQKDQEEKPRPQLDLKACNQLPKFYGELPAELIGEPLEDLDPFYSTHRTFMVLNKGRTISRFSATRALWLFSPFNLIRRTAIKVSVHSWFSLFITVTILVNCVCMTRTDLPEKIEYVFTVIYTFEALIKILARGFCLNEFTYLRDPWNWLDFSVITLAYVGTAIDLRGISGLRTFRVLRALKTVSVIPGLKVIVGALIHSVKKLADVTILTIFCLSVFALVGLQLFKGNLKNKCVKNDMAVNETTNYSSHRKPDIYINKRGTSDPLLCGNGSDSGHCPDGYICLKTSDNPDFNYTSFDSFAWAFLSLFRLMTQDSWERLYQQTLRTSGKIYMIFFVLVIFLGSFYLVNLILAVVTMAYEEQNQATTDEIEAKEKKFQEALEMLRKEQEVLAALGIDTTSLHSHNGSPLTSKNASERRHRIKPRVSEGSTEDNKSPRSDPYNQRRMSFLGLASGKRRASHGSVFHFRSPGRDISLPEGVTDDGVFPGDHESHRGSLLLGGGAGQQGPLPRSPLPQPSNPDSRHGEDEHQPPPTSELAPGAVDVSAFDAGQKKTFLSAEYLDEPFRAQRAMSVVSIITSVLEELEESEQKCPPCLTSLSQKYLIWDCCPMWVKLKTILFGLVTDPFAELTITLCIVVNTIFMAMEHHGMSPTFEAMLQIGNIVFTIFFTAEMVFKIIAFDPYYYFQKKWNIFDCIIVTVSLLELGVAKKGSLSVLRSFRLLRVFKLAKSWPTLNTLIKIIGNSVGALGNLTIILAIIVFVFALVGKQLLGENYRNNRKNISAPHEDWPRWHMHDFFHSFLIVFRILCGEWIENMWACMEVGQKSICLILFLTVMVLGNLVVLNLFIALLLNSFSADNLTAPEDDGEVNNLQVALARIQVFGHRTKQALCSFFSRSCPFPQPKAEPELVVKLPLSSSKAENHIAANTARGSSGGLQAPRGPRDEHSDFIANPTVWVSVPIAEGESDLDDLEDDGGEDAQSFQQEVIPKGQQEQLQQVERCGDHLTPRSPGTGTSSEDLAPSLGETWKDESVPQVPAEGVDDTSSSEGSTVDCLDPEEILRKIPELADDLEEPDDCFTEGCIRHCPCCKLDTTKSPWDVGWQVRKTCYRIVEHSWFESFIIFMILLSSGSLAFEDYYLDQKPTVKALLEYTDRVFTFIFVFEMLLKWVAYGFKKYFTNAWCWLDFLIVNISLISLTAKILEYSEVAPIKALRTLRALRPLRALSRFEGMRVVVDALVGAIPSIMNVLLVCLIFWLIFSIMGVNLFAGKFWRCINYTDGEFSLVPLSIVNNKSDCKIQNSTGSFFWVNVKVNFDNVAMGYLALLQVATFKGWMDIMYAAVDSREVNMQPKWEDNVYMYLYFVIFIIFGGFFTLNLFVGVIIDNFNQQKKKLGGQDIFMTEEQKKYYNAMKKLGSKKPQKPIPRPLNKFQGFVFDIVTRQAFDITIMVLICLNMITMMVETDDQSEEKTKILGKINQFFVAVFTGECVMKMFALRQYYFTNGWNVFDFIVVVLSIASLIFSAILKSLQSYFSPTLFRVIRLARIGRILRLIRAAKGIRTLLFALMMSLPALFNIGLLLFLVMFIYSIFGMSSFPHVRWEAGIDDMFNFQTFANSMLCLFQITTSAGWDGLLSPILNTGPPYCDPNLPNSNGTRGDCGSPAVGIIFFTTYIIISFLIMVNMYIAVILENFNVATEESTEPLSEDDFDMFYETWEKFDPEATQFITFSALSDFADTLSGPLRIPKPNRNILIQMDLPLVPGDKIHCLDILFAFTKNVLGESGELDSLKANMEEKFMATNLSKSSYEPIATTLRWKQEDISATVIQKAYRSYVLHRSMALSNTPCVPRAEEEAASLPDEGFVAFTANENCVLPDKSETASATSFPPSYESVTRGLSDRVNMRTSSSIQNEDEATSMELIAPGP

IC50 [1] | IC50 [2] | SMILES
2.37 µM | 1.41 µM | CCOc1ccc(-c2cncc(C(=O)N/N=C/c3ccc(OC)c(OC)c3)n2)cc1 [Compound 28, (E)-N′-(3,4-dimethoxybenzylidene)-6-(4-ethoxyphenyl)pyrazine-2-carbohydrazide]
6.02 µM | 6.66 µM | CCOc1ccc(-c2cncc(C(=O)N/N=C/c3cc(OC)cc(OCCN(C)C)c3)n2)cc1 [Compound 4, (E)-N′-(3-(2-(dimethylamino)ethoxy)-5-methoxybenzylidene)-6-(4-ethoxyphenyl)pyrazine-2-carbohydrazide]
9.18 µM | 6.36 µM | CCOc1ccc(-c2cncc(C(=O)N/N=C(\C)c3cc(OC)cc(OC)c3)n2)cc1 [Compound 166, (E)-N′-(1-(3,5-dimethoxyphenyl)ethylidene)-6-(4-ethoxyphenyl)pyrazine-2-carbohydrazide]
5.63 µM | > 10 µM | CCOc1ccc(-c2cncc(C(=O)N/N=C/c3cc(OC)cc4ncoc34)n2)cc1 [Compound 5, (E)-6-(4-ethoxyphenyl)-N′-((5-methoxybenzo[d]oxazol-7-yl)methylene)pyrazine-2-carbohydrazide]
> 10 µM | > 10 µM | CCOc1ccc(-c2cncc(C(=O)N/N=C/c3cncc(OC)c3)n2)cc1 [Compound 8, (E)-6-(4-ethoxyphenyl)-N′-((5-methoxypyridin-3-yl)methylene)pyrazine-2-carbohydrazide]
8.09 µM | > 10 µM | CCOc1ccc(-c2cncc(C(=O)N/N=C/c3ccncc3)n2)cc1 [Compound 24, (E)-6-(4-ethoxyphenyl)-N′-(pyridin-4-ylmethylene)pyrazine-2-carbohydrazide]
9.77 µM | > 10 µM | CCOc1ccc(-c2cncc(C(=O)N/N=C/c3cc(OC)ccn3)n2)cc1 [Compound 9, (E)-6-(4-ethoxyphenyl)-N′-((4-methoxypyridin-2-yl)methylene)pyrazine-2-carbohydrazide]
> 10 µM | > 10 µM | CCOc1ccc(-c2cncc(C(=O)N/N=C/c3ccccn3)n2)cc1 [Compound 25, (E)-6-(4-ethoxyphenyl)-N′-(pyridin-2-ylmethylene)pyrazine-2-carbohydrazide]
3.23 µM | 4.52 µM | CCOc1ccc(-c2cncc(C(=O)N/N=C/c3cccc(OC)n3)n2)cc1 [Compound 11, (E)-6-(4-ethoxyphenyl)-N′-((6-methoxypyridin-2-yl)methylene)pyrazine-2-carbohydrazide]
1.9 µM | 0.697 µM | CCOc1ccc(-c2cncc(C(=O)N/N=C/c3ccc(OC)cc3)n2)cc1 [Compound 23, (E)-6-(4-ethoxyphenyl)-N′-(4-methoxybenzylidene)pyrazine-2-carbohydrazide]
